{"source": "ChEMBL document CHEMBL1159166", "about": "“Chemoselective thioacylation of amino acids. Preparation of the four monothiothymopentin analogs and their biological activity” (1993)", "note": "Where a SMILES comes first, the peptide text is derived from it."}
{"species_on_record": "Bos taurus", "assay": "Electromyographic activity is measured as mean of the ratio of the height of the muscle action potential generated by the tenth impulse to the initial impulse in bovine thymus extracts at 10 mg", "type": "functional, Muscle tissue"}
{"smiles": "CC(C)[C@H](NC(=O)[C@H](CC(=O)O)NC(=O)[C@H](CCCCN)/N=C(\\S)[C@@H](N)CCCN=C(N)N)C(=O)N[C@@H](Cc1ccc(O)cc1)C(=O)O", "Mean": 0.85}
{"smiles": "CC(C)[C@H](/N=C(\\S)[C@H](CC(=O)O)NC(=O)[C@H](CCCCN)NC(=O)[C@@H](N)CCCN=C(N)N)C(=O)N[C@@H](Cc1ccc(O)cc1)C(=O)O", "Mean": 0.89}
{"smiles": "CC(C)[C@H](NC(=O)[C@H](CC(=O)O)NC(=O)[C@H](CCCCN)NC(=O)[C@@H](N)CCCN=C(N)N)/C(S)=N/[C@@H](Cc1ccc(O)cc1)C(=O)O", "Mean": 0.84}
{"smiles": "CC(C)[C@H](NC(=O)[C@H](CC(=O)O)/N=C(\\S)[C@H](CCCCN)NC(=O)[C@@H](N)CCCN=C(N)N)C(=O)N[C@@H](Cc1ccc(O)cc1)C(=O)O", "Mean": 0.83}
{"smiles": "CC(C)[C@H](NC(=O)[C@H](CC(=O)O)NC(=O)[C@H](CCCCN)NC(=O)[C@@H](N)CCCN=C(N)N)C(=O)N[C@@H](Cc1ccc(O)cc1)C(=O)O", "note": "[THYMOPENTIN] (H-RKDVY-OH)", "Mean": 0.83}
